According to patent US9102648B1, “Bioavailable diacylhydrazine ligands for modulating the expression of exogenous genes via an ecdysone receptor complex” (Intrexon Corporation, priority 2003, dated 2015):

Assays:
[1] = molecular target: T1, Bombyx mori EcR (VP16 fusion, CVBE switch construct) (Bombyx mori, UniProt P49881); assay: Z3 Assay (HEK-293 cells with CVBE and 6XEcRE LacZ, β-galactosidase reporter); settings: for Fold Induction, Z3 Assay, 3.3 uM: 3.3 uM ligand; for Fold Induction, Z3 Assay, 3.3 uM / Fold Induction, Z3 Assay, 33 uM: ligand treated / DMSO treated cells; for Fold Induction, Z3 Assay, 3.3 uM / Fold Induction, Z3 Assay, 33 uM / EC50: average of two wells; for Fold Induction, Z3 Assay, 33 uM: 33 uM ligand; for EC50: read-out: Z3 assay EC50, β-galactosidase reporter; for EC50 / Z3 assay Rel Max FI: HEK-293 Z3 cells; for Z3 assay Rel Max FI: maximum fold induction at any concentration relative to that of GS-E ligand
T1 sequence (P49881 86-606): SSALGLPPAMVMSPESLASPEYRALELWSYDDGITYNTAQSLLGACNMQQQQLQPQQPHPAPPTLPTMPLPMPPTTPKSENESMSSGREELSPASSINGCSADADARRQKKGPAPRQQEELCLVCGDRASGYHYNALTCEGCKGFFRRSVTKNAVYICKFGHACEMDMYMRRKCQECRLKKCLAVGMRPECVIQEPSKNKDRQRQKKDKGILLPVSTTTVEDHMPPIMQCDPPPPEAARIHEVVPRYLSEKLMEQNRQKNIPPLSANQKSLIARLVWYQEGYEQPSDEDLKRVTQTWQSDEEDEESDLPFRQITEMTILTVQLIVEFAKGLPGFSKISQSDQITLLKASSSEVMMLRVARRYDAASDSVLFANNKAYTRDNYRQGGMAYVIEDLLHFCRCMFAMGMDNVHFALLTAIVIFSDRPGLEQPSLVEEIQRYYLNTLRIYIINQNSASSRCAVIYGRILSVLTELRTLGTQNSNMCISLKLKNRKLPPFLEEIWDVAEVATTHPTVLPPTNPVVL
T1 sequence (P19793 1-462 partner): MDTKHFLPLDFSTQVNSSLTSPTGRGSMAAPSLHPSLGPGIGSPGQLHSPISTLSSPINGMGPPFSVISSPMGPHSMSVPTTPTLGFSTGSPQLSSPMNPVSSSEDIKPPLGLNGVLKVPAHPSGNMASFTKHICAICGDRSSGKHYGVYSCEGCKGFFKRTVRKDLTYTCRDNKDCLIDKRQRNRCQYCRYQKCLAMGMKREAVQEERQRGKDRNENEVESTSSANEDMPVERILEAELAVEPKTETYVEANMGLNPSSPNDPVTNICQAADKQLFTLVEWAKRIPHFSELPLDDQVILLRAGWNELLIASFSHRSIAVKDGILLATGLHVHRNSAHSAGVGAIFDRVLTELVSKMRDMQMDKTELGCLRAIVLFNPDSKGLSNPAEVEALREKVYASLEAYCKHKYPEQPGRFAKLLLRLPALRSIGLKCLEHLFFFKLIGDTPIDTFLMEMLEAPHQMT
Text: Dr. F. Gage provided a population of stably transformed cells containing CVBE and 6XEcRE as described in Suhr, S. T., Gil, E. B., Senut M. C., Gage, F. H. (1998) Proc. Natl. Acad. Sci. USA 95, 7999-804. Human 293 kidney cells, also referred to as HEK-293 cells, were sequentially infected with retroviral vectors encoding first the switch construct CVBE, and subsequently the reporter construct 6XEcRE Lac Z. The switch construct contained the coding sequence for amino acids 26-546 from Bombyx mori EcR (BE) (Iatrou) inserted in frame and downstream of the VP16 transactivation domain (VBE). A synthetic ATG start codon was placed under the control of cytomegalovirus (CVBE) immediate early promoter and flanked by long terminal repeats (LTR). The reporter construct contained six copies of the ecdysone response element (EcRE) binding site placed upstream of LacZ and flanked on both sides with LTR sequences (6XEcRE).
Dilution cloning was used to isolate individual clones. Clones were selected using 450 ug/mL G418 and 100 ng/mL puromycin. Individual clones were evaluated based on their response in the presence and absence of test ligands.
Human 293 kidney cells stably transformed with CVBE and 6XEcRE LacZ were maintained in Minimum Essential Medium (Mediates, 10-010-CV) containing 10% FBS (Life Technologies, 26140-087), […] G418 (Mediates, 30-234-CR), and […] (Sigma, P-7255), at 37° C. in an atmosphere containing 5% CO2 and were subculture when they reached 75% confluence.
Z3 cells were seeded into 96-well tissue culture plates at a concentration of 2.5×10^3 cells per well and incubated at 37° C. in 5% CO2 for twenty-four hours. Stock solutions of ligands were prepared in DMSO. Ligand stock solutions were diluted 100 fold in media and 50 μL of this diluted ligand solution ([…]) was added to cells. The final concentration of DMSO was maintained at 0.03% in both controls and treatments.
Reporter gene expression was evaluated 48 hours after treatment of cells, β-galactosidase activity was measured using Gal Screen™ bioluminescent reporter gene assay system from Tropix (GSY1000). Fold induction activities were calculated by dividing relative light units (“RLU”) in ligand treated cells with RLU in DMSO treated cells. Luminescence was detected at room temperature using a Dynex MLX microtiter plate luminometer.
Flanking both constructs are long terminal repeats, G418 and puromycin are selectable markers, CMV is the cytomegalovirus promoter, VBE is coding sequence for amino acids 26-546 from Bombyx mori EcR inserted downstream of the VP16 transactivation domain, 6×EcRE is six copies of the ecdysone response element, lacZ encodes for the reporter enzyme β-galactosidase.
(§1) Each assay was conducted in two separate wells, and the two values were averaged. Fold inductions were calculated by dividing relative light units (“RLU”) in ligand treated cells with RLU in DMSO treated cells. EC50s were calculated from dose response data using a three-parameter logistic model.

[2] = molecular target: GAL4 DBD-CfEcR(DEF)/VP16AD-MmRXRE (Choristoneura fumiferana, UniProt O77240); assay: 13B3 Assay (CHO stable cell line, luciferase reporter); settings: for Fold Induction, 13B3 Assay, 3.3 uM: 3.3 uM ligand; for Fold Induction, 13B3 Assay, 3.3 uM / Fold Induction, 13B3 Assay, 33 uM: RLU ligand treated / RLU DMSO treated cells; for Fold Induction, 13B3 Assay, 3.3 uM / EC50 / Fold Induction, 13B3 Assay, 33 uM: average of two wells; for 13B3 assay Rel Max FI: maximum fold induction at any concentration relative to that of GS-E ligand, CHO 13B3 cells; for EC50: read-out: 13B3 EC50, CHO 13B3 stable cell line, luciferase reporter, 48 h; for Fold Induction, 13B3 Assay, 33 uM: 33 uM ligand
Text: GAL4 DBD-CfEcR(DEF)/VP16AD-MmRXRE:
The wild-type D, E, and F domains from spruce budworm Choristoneura fumiferana EcR (“CfEcR-DEF”; SEQ ID NO: 1) were fused to a GALA DNA binding domain (“Gal4DBD1-147”; SEQ ID NO: 2) and placed under the control of the SV40e promoter of pM vector (PT3119-5, Clontech, Palo Alto, Calif.). The D and E domains from Mus Musculus RXR (“MmRXR-DE”; SEQ ID NO: 11) were fused to the transactivation domain from VP16 (“VP16AD”; SEQ ID NO: 6) and placed under the control of the SV40e promoter of the pVP16 vector (PT3127-5, Clontech, Palo Alto, Calif.).
CHO cells were transiently transfected with transcription cassettes for GAL4 DBD-CJEcR(DEF) and for VP16AD-MmRXRE controlled by SV40e promoters. Stably transfected cells were selected using Hygromycin. Individually isolated CHO cell clones were transiently transfected with a GALA RE-luciferase reporter (pFR-Luc, Stratagene, La Jolla, Calif.). The 13B3 clone was selected using Zeocin.
(§2) Cells were trypsinized and diluted to a concentration of 2.5×10^4 cells mL. 100 μL of cell suspension was placed in each well of a 96 well plate and incubated at 37° C. under 5% CO2 for 24 h. Ligand stock solutions were prepared in DMSO and diluted 300 fold for all treatments. Dose response testing consisted of 8 concentrations ranging from 33 μM to 0.01 μM.
(§3) Luciferase reporter gene expression was measured 48 h after cell treatment using Bright-Glo™ Luciferase Assay System from Promega (E2650). Luminescence was detected at room temperature using a Dynex MLX microtiter plate luminometer.
as §1

[3] = molecular target: GAL4 DBD (1-147)-CfEcR(DEF)/VP16AD-βRXREF-LmUSPEF (Choristoneura fumiferana, UniProt O77240); assay: cell-based
Text: GAL4 DBD (1-147)-CfEcR(DEF)/VP16AD-βRXREF-LmUSPEF:
The wild-type D, E, and F domains from spruce budworm Choristoneura fumiferana EcR (“CfEcR-DEF”; SEQ ID NO: 1) were fused to a GAL4 DNA binding domain (“Gal4DBD1-147”; SEQ ID NO: 2) and placed under the control of a phosphoglycerate kinase promoter (“PGK”; SEQ ID NO: 3). Helices 1 through 8 of the EF domains from Homo sapiens RXRβ (“HsRXRβ-EF”; nucleotides 1-465 of SEQ ID NO: 4) and helices 9 through 12 of the EF domains of Locusta migratoria Ultraspiracle Protein (“LmUSP-EF”; nucleotides 403-630 of SEQ ID NO: 5) were fused to the transactivation domain from VP16 (“VP16AD”; SEQ ID NO: 6) and placed under the control of an elongation factor-1α promoter (“EF-1α”; SEQ ID NO: 7). Five consensus GAL4 response element binding sites (“5XGAL4RE”; comprising 5 copies of a GAL4RE comprising SEQ ID NO: 8) were fused to a synthetic TATA minimal promoter (SEQ ID NO: 9) and placed upstream of the luciferase reporter gene (SEQ ID NO: 10).
CHO cells were transiently transfected with transcription cassettes for GAL4 DBD (1-147) CJEcR(DEF) and for VP16AD βRXREF-LmUSPEF controlled by ubiquitously active cellular promoters (PGK and EF-la, respectively) on a single plasmid. Stably transfected cells were selected by Zeocin resistance. Individually isolated CHO cell clones were transiently transfected with a GAL4 RE-luciferase reporter (pFR Luc). 27-63 clone was selected using Hygromycin.
as §2, with “[…]” for “33 μM”
as §3, §1

Row | Structure (SMILES) | Fold Induction, Z3 Assay, 3.3 uM [1] | Fold Induction, Z3 Assay, 33 uM [1] | EC50 [1] | Fold Induction, 13B3 Assay, 3.3 uM [2] | Z3 assay Rel Max FI [1] | Fold Induction, 13B3 Assay, 33 uM [2] | other results
1 | Cc1cc(C(=O)N(NC(=O)c2cccc(Cl)c2C)C(C)(C)C)ccc1Br [RG-101664] | 6 | 1 | 21100 nM | 1 | – | – | 13B3 assay Rel Max FI [2]: 0.002; EC50 [2]: > 50000 nM
2 | Cc1cc(C)cc(C(=O)N(NC(=O)c2ccc3ncsc3c2)C(C)(C)C)c1 [RG-101312] | 600 | 292 | 5620 nM | – | 0.955 | 1874 | –
3 | CCc1c(OC)cccc1C(=O)NN(C(=O)c1ccc(F)cc1)C(C)(C)C [RG-100812] | 1587 | 399 | 912 nM | – | 0.954 | 202 | –
4 | Cc1cc(C)cc(C(=O)N(NC(=O)c2ccc3c(c2F)COCO3)C(C)(C)C)c1 [RG-115068] | 54 | 802 | 21000 nM | 2828 | 0.804 | 1500 | 13B3 assay Rel Max FI [2]: 0.722; EC50 [2]: 926 nM
5 | CCc1c(OC)cccc1C(=O)NN(C(=O)c1cnccn1)C(C)(C)C [RG-115550, pyrazine-2-carboxylic acid N-tert-butyl-N′-(2-ethyl-3-methoxy-benzoyl)-hydrazide] | – | – | – | – | – | – | fold induction at 33 µM ([1]; HEK293, read-out: Fold Induction, Z3 Assay, 33 uM): 21; fold induction at 3.3 µM ([2]; read-out: Fold Induction, 13B3 Assay, 3.3 uM): 1
6 | COc1cccc(C(=O)NN(C(=O)c2cc(Cl)nc(Cl)c2)C(C)(C)C)c1C [RG-100394] | 1339 | 11 | 1220 nM | – | – | 178 | –
7 | Cc1cc(C)cc(C(=O)N(NC(=O)c2cccc(I)c2C)C(C)(C)C)c1 [RG-101734] | 987 | 951 | 145 nM | 918 | 0.988 | 442 | –
8 | Cc1cc(C)cc(C(=O)N(NC(=O)c2ccc3c(c2Cl)COCO3)C(C)(C)C)c1 [RG-115532] | 530 | – | 129 nM | 908 | 0.933 | 738 | 13B3 assay Rel Max FI [2]: 0.835; EC50 [2]: 518 nM
9 | CCc1c(OC)cccc1C(=O)NN(C(=O)c1cc(OC)ccc1OC)C(C)(C)C [RG-100779] | 947 | 304 | 178 nM | – | 0.707 | 2979 | –
10 | CCc1c(C(=O)NN(C(=O)c2ccc(F)cc2)C(C)(C)C)ccc2c1OCOC2 [RG-100574] | – | 389 | 1120 nM | – | – | – | Fold Induction, 27-63 Assay, 3.3 uM ([3]; 3.3 uM ligand, RLU ligand treated / RLU DMSO treated cells, average of two wells): 151; Fold Induction, 27-63 Assay, 33 uM ([3]; 33 uM ligand, RLU ligand treated / RLU DMSO treated cells, average of two wells): 21; 27-63 assay Rel Max FI ([3]; maximum fold induction at any concentration relative to that of GS-E ligand, CHO 27-63 cells): 0.371; EC50 ([3]; read-out: 27-63 assay EC50, CHO 27-63 stable cell line, luciferase reporter, average of two wells): 4000 nM
11 | CCc1c(OC)cccc1C(=O)NN(C(=O)c1ccc2ncn(C(c3ccccc3)(c3ccccc3)c3ccccc3)c2c1)C(C)(C)C [RG-115718, 3-trityl-3H-benzoimidazole-5-carboxylic acid N-tert-butyl-N′-(2-ethyl-3-methoxy-benzoyl)-hydrazide] | – | – | – | – | – | – | fold induction at 33 µM ([2]; read-out: Fold Induction, 13B3 Assay, 33 uM): 2
